For one test, the target named is T1, SIK1 (Homo sapiens, UniProt P57059).
T1 construct: purchased Carna Biosciences 02-131
Briefly: biochemical. Particulars: 33P radioactive SIK kinase assay, AMARA peptide, 10 μM ATP; read-out: SIK1 IC50. In a few lines:
(§1)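 AMARA peptide phosphorylation by SIK1–3 is quantified through ^33P uptake from a labeled/unlabeled ATP blend. Staurosporine at 10 μM final defines full inhibition, 1% DMSO the uninhibited signal. Quench uses phosphoric acid; counting follows filter capture.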

The target in another test is T2, SIK2 (Homo sapiens, UniProt Q9H0K1).
T2 construct: purchased ThermoFisher Scientific PV4792
Briefly: biochemical. Particulars: 33P radioactive SIK kinase assay, AMARA peptide, 10 μM ATP. Summed up:
as §1

For a further test, the target named is T3, SIK3 (Homo sapiens, UniProt Q9Y2K2).
T3 construct: purchased SignalChem S12-11G-100
Description: biochemical. Summed up: as §1

The test system of test [1] is LPS triggered IL-10 secretion in monocyte-derived macrophages (MdM). Description: MdM assay: LPS-triggered IL-10 (ELISA). Particulars: maximal fold change vs LPS only, median across assays. In kind it is cell-based, human. As to the method: This assay evaluates illustrative compounds of the invention for their inhibition of LPS-induced TNFα and LPS triggered IL-10 secretion in monocyte-derived macrophages.
PBMCs are isolated from human blood samples (buffycoats). The buffy coat is aseptically transferred into a 50 mL Falcon tube, and diluted 1/2 in PBS. Falcon tubes are filled with 20 mL Lymphoprep™, on top of which 25 mL of the buffy coat is carefully added, tubes are centrifuged for 35 min at 400 g in temperature controlled centrifuge, without brake, at 25° C. PBMCs are aspirated from the white interface layer between sample and Lymphoprep™. PBMCs are washed five times in PBS.
PBMCs are centrifuged at 300×g for 10 min and resuspended at a density of 1.0E07 cells/80 μL Miltenyi buffer (PBS, pH 7.4, 1% FBS, 2 mM EDTA).
Starting from this point of the protocol all steps are performed on ice. 20 μL of CD14+ micro-beads are added per 1.0E07 cells, the tube is mixed and incubated for 15 min in the fridge at 4° C. Cell suspension volume is adjusted to total volume of 100 mL using Miltenyi buffer, mixed gently and subsequently centrifuged for 10 min at 300× g. Supernantant is discarded and cell pellet is resuspended in 12 mL of Miltenyi buffer.
Four LS columns are placed in the MACS Separator (magnet) from Miltenyi Biotec, and are prewet by rinsing with 3 mL of MACS buffer per column. Three mL of cell suspension is added onto the column (max 1*10^8 of labelled cells/column), and columns are subsequently washed 3 times with 3 mL of Miltenyi buffer.
The columns are removed from the magnets, and 5 mL of Miltenyi buffer are added to the column to flush out the CD14+ fraction by pushing the plunger into the column. The flushed fractions are collected in a fresh 50 mL Falcon and volume is adjusted to 30 mL using Miltenyi buffer, cells are centrifuged for 10 min at 300× g. The obtained cell pellet is resuspended in 10 mL RPMI w/o FBS, and cell density is determined using a hematologic analyser (Sysmex XS-500i).
On day 10, MdMs are triggered and compound is added.
A compound dilution plate is made in 100% DMSO by 3-fold dilution of 10 mM stock solution. An intermediate dilution plate (10× final concentration) is made by diluting the compound dilution plate 50-fold in RPMI medium.
Medium is carefully removed from cell plates using multichannel pipette, and replaced by 80 μL fresh medium. 10 μL of the 10× final concentration compound is added to the cells and incubated for 1 hour at 37° C. before addition of trigger. No trigger conditions/trigger conditions are spiked with equal final DMSO concentrations of 0.2% DMSO. 10 μL of 10×LPS (final conc. 200 ng/mL) solution are added to all wells except for the ‘no trigger wells’ where 10 μL medium is added. Supernatant is collected after 2 h (IL-10 determination) and after 20 h (TNFα determination) of LPS triggering.
Plates are washed three times with PBST, where after 100 μL of Strep-HRP conjugate (0.5 μg/mL final concentration diluted in dilution buffer) is added. Plates are incubated in the dark, at 37° C. for 30 min. Plates are washed three times with PBST. […] 100 μL of substrate solution is added to each well and incubated until brilliant blue color develops. The reaction is stopped by adding 50 μL of 1 M H2SO4, after which absorbance is measured at 450 nm on the SpectraMax i3, Molecular Devices.
To quantify these inductions fold changes (FC) compared to ‘LPS only’ are calculated for each concentration tested and the maximal FC is calculated (IL-10 FCmax):
[formula] wherein ABS=Absorbance measured at 450 nm.
The median maximal FC for test compounds across two or more assays is reported (IL-10FCmax median).

In test [2] the test system is LPS-induced TNFα secretion in monocyte-derived macrophages (MdM). Briefly: MdM assay: LPS-triggered TNFα (ELISA). It counts as cell-based, human. Particulars: Homo sapiens, Macrophage, LPS-triggered TNFα inhibition. Summed up:
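TNFα ELISA read on supernatants harvested 20 h after LPS (final 200 ng/mL) stimulation. Cells were day-10 macrophages derived from human blood CD14+ monocytes, exposed to 3-fold compound dilutions for 1 h at 37 °C beforehand, with DMSO held at 0.2%.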

T1 sequence (P57059 whole entry): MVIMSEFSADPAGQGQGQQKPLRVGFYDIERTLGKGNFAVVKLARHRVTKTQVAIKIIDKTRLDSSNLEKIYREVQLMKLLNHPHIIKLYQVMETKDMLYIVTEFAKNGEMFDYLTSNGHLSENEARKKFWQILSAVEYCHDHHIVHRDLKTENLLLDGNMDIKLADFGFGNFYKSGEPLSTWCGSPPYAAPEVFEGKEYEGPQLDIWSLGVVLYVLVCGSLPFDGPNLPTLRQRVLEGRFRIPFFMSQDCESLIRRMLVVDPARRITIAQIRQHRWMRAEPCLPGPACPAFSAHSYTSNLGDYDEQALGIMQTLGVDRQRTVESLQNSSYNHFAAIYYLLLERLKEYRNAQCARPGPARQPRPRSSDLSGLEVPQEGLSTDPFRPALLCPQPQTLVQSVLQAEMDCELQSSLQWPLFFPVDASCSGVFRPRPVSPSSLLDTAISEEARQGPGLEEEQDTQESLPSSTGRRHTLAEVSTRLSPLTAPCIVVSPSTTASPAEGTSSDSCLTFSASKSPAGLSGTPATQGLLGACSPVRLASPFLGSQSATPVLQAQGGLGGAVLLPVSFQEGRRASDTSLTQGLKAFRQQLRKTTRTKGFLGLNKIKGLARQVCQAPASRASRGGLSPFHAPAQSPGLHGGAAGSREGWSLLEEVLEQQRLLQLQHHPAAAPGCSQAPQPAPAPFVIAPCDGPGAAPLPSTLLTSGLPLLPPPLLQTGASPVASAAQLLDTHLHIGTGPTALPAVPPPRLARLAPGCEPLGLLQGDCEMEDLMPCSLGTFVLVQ
T3 sequence (Q9Y2K2 whole entry): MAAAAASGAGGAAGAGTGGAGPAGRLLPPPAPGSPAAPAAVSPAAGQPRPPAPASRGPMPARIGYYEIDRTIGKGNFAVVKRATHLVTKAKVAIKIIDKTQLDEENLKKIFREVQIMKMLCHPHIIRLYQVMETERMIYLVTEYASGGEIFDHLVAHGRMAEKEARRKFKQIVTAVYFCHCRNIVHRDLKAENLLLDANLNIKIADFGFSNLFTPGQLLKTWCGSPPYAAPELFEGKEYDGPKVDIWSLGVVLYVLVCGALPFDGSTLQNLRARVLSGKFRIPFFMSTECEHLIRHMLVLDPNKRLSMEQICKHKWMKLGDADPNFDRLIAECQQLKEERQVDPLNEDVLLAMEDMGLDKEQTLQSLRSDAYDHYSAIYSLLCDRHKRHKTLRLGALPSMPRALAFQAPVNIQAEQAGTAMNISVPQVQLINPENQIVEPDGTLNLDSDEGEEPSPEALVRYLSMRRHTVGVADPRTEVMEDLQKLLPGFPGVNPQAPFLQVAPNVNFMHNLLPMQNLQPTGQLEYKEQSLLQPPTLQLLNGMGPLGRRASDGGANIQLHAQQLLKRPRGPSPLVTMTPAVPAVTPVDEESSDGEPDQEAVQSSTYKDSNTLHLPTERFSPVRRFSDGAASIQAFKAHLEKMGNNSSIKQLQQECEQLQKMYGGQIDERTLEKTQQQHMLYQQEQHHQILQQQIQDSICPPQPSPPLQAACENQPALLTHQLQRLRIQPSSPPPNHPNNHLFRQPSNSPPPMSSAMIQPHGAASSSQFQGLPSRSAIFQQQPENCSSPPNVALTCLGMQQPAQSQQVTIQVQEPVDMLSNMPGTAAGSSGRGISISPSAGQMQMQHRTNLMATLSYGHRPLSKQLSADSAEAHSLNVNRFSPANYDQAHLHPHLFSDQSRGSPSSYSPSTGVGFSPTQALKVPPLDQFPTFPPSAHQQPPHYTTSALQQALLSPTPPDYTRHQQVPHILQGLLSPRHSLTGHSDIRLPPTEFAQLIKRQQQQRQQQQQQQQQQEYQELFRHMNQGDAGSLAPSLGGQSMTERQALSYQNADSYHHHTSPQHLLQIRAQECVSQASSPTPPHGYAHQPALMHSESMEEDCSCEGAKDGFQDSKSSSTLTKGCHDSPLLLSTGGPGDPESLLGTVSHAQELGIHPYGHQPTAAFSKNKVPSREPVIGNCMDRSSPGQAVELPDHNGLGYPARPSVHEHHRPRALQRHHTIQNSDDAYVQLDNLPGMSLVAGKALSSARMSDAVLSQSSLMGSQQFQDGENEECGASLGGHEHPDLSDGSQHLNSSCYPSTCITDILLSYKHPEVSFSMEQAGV
T2 sequence (Q9H0K1 whole entry): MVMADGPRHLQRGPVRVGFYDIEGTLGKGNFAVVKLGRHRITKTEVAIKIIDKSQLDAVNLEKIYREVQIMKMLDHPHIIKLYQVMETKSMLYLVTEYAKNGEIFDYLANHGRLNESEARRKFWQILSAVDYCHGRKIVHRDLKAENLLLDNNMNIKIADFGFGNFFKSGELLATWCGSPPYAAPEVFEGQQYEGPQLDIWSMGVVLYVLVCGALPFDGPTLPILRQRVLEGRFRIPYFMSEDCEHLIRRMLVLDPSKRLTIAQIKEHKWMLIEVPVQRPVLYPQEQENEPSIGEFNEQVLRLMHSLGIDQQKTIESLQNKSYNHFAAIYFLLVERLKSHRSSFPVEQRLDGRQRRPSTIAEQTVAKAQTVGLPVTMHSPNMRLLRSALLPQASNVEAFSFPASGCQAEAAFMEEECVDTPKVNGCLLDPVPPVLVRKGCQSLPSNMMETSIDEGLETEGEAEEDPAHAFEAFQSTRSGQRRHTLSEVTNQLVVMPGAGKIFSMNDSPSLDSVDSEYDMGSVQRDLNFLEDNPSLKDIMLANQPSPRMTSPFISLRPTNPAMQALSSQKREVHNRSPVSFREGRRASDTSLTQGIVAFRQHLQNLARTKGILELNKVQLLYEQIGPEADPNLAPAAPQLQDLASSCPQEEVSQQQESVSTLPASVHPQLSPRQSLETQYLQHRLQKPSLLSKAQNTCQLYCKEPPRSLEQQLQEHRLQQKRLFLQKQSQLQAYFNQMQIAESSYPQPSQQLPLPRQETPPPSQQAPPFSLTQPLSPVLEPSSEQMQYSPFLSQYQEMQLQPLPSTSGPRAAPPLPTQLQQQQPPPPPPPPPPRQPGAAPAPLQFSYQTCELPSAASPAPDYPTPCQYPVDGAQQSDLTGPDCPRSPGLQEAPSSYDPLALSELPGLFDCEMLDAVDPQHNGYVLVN

In the case of `CCn1cc(-c2ccc3c(c2)ncn3-c2cc(OC)c(C(=O)NCC#N)c(OC)c2)cn1` [compound 50, N-(cyanomethyl)-4-[5-(1-ethylpyrazol-4-yl)benzimidazol-1-yl]-2,6-dimethoxy-benzamide], the results for the IC50 at SIK1, on SIK2 and on SIK3 were 10 to 100 nM, 0.01 to 10 nM and 0.01 to 10 nM, respectively. The “IL-10 FCmax median” value in test [1] is “++ (>1.5-4.5)”. The same compound showed an EC50 in test [2] of 100 to 1000 nM.

Turning to `CCn1cc(-c2ccc3c(c2)ncn3-c2cc(OC)c(C(=O)NC3CC3)c(OC(F)F)c2)cn1` [compound 54, N-cyclopropyl-2-(difluoromethoxy)-4-[5-(1-ethylpyrazol-4-yl)benzimidazol-1-yl]-6-methoxy-benzamide], the IC50 at SIK1 fell in the range of 10 to 100 nM; on SIK2, 0.01 to 10 nM; against SIK3, 0.01 to 10 nM. In test [1], the “IL-10 FCmax median” value is recorded as “++ (>1.5-4.5)”. In test [2], this compound returned an EC50 of 0.1 to 100 nM.

For the compound `COc1cc(-n2cnc3cc(-c4cnn(C)c4)ccc32)cc(OC)c1C(=O)N[C@@H](C)C(F)(F)F` [compound 80, 2,6-dimethoxy-4-[5-(1-methylpyrazol-4-yl)benzimidazol-1-yl]-N-[(1S)-2,2,2-trifluoro-1-methyl-ethyl]benzamide], the IC50 was 10 to 100 nM at SIK1, 0.01 to 10 nM at SIK2 and 10 to 100 nM against SIK3. In test [1], the “IL-10 FCmax median” value is listed as “++ (>1.5-4.5)”. The EC50 in test [2] lay in the range of 0.1 to 100 nM.

For the compound `COc1cc(-n2cnc3cc(-c4cnn(C)c4)ccc32)cc(OC)c1C(=O)N[C@@H]1C[C@@H]1F` [compound 144, N-[(1R,2S)-2-fluorocyclopropyl)-2,6-dimethoxy-4-[5-(1-methylpyrazol-4-yl)benzimidazol-1-yl]benzamide], the concentration for half-maximal inhibition (IC50) at SIK1, on SIK2 and at SIK3 was 0.01 to 10 nM throughout. In test [1], the “IL-10 FCmax median” value was “++ (>1.5-4.5)”. Also, the EC50 in test [2] was in the range of 0.1 to 100 nM.

As to `CCNC(=O)c1c(OC)cc(-c2cnc3cc(-c4cnn(C5CCN(C)CC5)c4)ccn23)cc1OC(F)F` [compound 148, 2-(difluoromethoxy)-N-ethyl-6-methoxy-4-[7-[1-(1-methyl-4-piperidyl)pvrazol-4-yl]imidazo[1,2-a]pyridin-3-yl]benzamide], the IC50 on SIK1, on SIK2 and against SIK3 was 0.01 to 10 nM throughout. In test [1], the “IL-10 FCmax median” value is listed as “++ (>1.5-4.5)”. For the same compound, the EC50 in test [2] is 0.1 to 100 nM.

Consider `COc1cc(-n2cnc3cc(-c4cnn(C)c4)ccc32)cc(OC)c1C(=O)N[C@@H]1C[C@@H]1C(F)F` [compound 158], for which the results for the IC50 on SIK1, on SIK2 and against SIK3 were 10 to 100 nM, 0.01 to 10 nM and 0.01 to 10 nM, respectively. Further, the “IL-10 FCmax median” value in test [1] is reported as “++ (>1.5-4.5)”. This compound had an EC50 in test [2] of 100 to 1000 nM.

For `COc1cc(-c2cnc3cc(-c4cnn(C)c4)ccn23)cc(Cl)c1C(=O)NCC(F)(F)F` [compound 207, 2-chloro-6-methoxy-4-[7-(1-methylpyrazol-4-yl)imidazo[1,2-a]pyridin-3-yl]-N-(2,2,2-trifluoroethyl)benzamide], the IC50 lay in the range of 10 to 100 nM at SIK1, 0.01 to 10 nM at SIK2 and 0.01 to 10 nM against SIK3. For the same compound, the “IL-10 FCmax median” value in test [1] is reported as “++ (>1.5-4.5)”. In test [2], the EC50 lay within 100 to 1000 nM.

For `COc1cc(-c2cnc3cc(-c4cnn(C)c4)ccn23)cc(OC)c1C(=O)N1CC(C#N)C1` [compound 209, 1-[2,6-dimethoxy-4-[7-(1-methylpyrazol-4-yl)imidazo[1,2-a]pyridin-3-yl]benzoyl)azetidine-3-carbonitrile], the IC50 on SIK1, at SIK2 and against SIK3 was 0.01 to 10 nM in each case. Also, the “IL-10 FCmax median” value in test [1] is reported as “++ (>1.5-4.5)”. The compound further had a 50% effective concentration (EC50) in test [2] of 100 to 1000 nM.

In the case of `COc1cc(-n2cnc3cc(-c4cnn(C)c4)ccc32)cc(OC)c1C(=O)N1CC(O)(C(F)(F)F)C1` [compound 219, [2,6-dimethoxy-4-[5-(1-methylpyrazol-4-yl)benzimidazol-1-yl]phenyl]-[3-hydroxy-3-(trifluoromethyl)azetidin-1-yl]methanone], the IC50 on SIK1, on SIK2 and against SIK3 was 0.01 to 10 nM each time. In test [1], the “IL-10 FCmax median” value was “++ (>1.5-4.5)”. The compound also returned an EC50 in test [2] of 100 to 1000 nM.

With `COc1cc(-c2cnc3cc(-c4cn[nH]c4)ccn23)cc(OC)c1C(=O)N[C@H](C)C(F)(F)F` [compound 222, 2,6-dimethoxy-4-[7-(1H-pyrazol-4-yl)imidazo[1,2-a]pyridin-3-yl]-N-[(1R)-2,2,2-trifluoro-1-methyl-ethyl]benzamide], the IC50 at SIK1, at SIK2 and at SIK3 was 0.01 to 10 nM throughout. The “IL-10 FCmax median” value in test [1] is given as “+++ (>4.5)”. For the same compound, in test [2], the EC50 was 100 to 1000 nM.

Take `COc1cc(-c2cnc3cc(-c4cc(C)no4)ccn23)cc(OC)c1C(=O)N[C@H](C)C(F)(F)F` [compound 223, 2,6-dimethoxy-4-[7-(3-methylisoxazol-5-yl)imidazo[1,2-a]pyridin-3-yl]-N-[(1R)-2,2,2-trifluoro-1-methyl-ethyl]benzamide]: the IC50 on SIK1, on SIK2 and against SIK3 was 10 to 100 nM throughout. The “IL-10 FCmax median” value in test [1] is recorded as “+++ (>4.5)”. The EC50 in test [2] lay in the range of 100 to 1000 nM.

Turning to `COc1ccc(-c2ccn3c(-c4cc(OC)c(C(=O)NCC(F)(F)F)c(OC)c4)cnc3c2)cn1` [compound 239, 2,6-dimethoxy-4-[7-(6-mcthoxy-3-pyridyl)imidazo[1,2--a]pyridin-3-yl]-N-(2,2,2-trifluoroethyl)benzamide], the IC50 was 10 to 100 nM at SIK1, 0.01 to 10 nM at SIK2 and 0.01 to 10 nM at SIK3. Besides, the “IL-10 FCmax median” value in test [1] is “++ (>1.5-4.5)”. In test [2], the EC50 lay within 100 to 1000 nM.

Regarding `COc1cc(-c2cnc3cc(-c4ccc(C#N)nc4)ccn23)cc(OC)c1C(=O)NCC(F)(F)F` [compound 240, 4-[7-(6-cyano-3-pyridyl)imidazo[1,2-a]pyridin-3-yl]-2,6-dimethoxy-N-(2,2,2-trifluoroethyl)benzamide], the half-inhibitory concentration (IC50) lay in the range of 100 to 500 nM at SIK1, 10 to 100 nM at SIK2 and 0.01 to 10 nM at SIK3. Besides, the “IL-10 FCmax median” value in test [1] is listed as “+ (≤1.5)”. In addition, in test [2], the EC50 fell in the range of 100 to 1000 nM.

With `COC(=O)CCCn1cc(-c2ccn3c(-c4cc(OC)c(C(=O)NCC(F)(F)F)c(OC)c4)cnc3c2)cn1` [compound 256, methyl 4-[4-[3-[3,5-dimethoxy-4-(2,2,2-trifluoroethyl-carbamoyl)phenyl]imidazo[1,2-a]pyridin-7-yl]pyrazol-1-yl]butanoate], the IC50 at SIK1, on SIK2 and against SIK3 was 0.01 to 10 nM in each case. The “IL-10 FCmax median” value in test [1] is “++ (>1.5-4.5)”. In test [2], this compound yielded an EC50 of 0.1 to 100 nM.
